Patent publication EP4745242A1, “NUCLEIC ACID VECTOR, NUCLEIC ACID DRUG, PREPARATION METHOD THEREFOR, AND USE THEREOF” (Bai Yao Zhi Da (Beijing) Nanobio Technology Co., Ltd., priority 2023, dated 2025)

Experiment: Example 41: body weight and clinical observations
Format: in vivo, BALB/cCrSlcNifdc mice
Conditions: for Individual animal body weight: single mouse per group
Protocol: • a) General clinical observations: The clinical condition of mice was observed three times per week during the study, including assessment of tumor nodule ulceration, general appearance/behavior, coat condition, and food intake. • b) Body weight: Mouse body weight was recorded three times per week. • c) Tumor volume: Tumor volume was measured three times per week using vernier calipers. The longest diameter (length) and the perpendicular short diameter (width) were measured, and tumor volume was calculated as: Volume = 0.5 × length × (short diameter)^2. […] The tumor-weight inhibition rate (IRTW, %) was calculated, taking IRTW% > 60% as a reference indicator of efficacy. The calculation is as follows: IRTW(%) = (Wvehicle control−Wtreatment)/Wvehicle control × 100, [formula] where W denotes tumor weight.

## COc1cccc2c1C(=O)c1c(O)c3c(c(O)c1C2=O)C[C@@](O)(C(=O)CO)C[C@@H]3O[C@H]1C[C@H](N)[C@@H](O)[C@H](C)O1 [F, epirubicin]
One animal per group, D26, 26 days after tumor cell injection, in g (unit assumed)
  Animal body weight, D26: 26.81
One animal per group, before administration to D26
  Change in body weight (g): +6.39 g
One animal per group, tail-vein injection once weekly, total 2 administrations, before administration
  Animal body weight, Before administration: 20.42
DAY 12, in g (unit assumed)
  Individual animal body weight: 20.42
DAY 14, in g (unit assumed)
  Individual animal body weight: 22.15
DAY 17, in g (unit assumed)
  Individual animal body weight: 23.68
DAY 19, in g (unit assumed)
  Individual animal body weight: 25.41
DAY 21, in g (unit assumed)
  Individual animal body weight: 26.51
DAY 24, in g (unit assumed)
  Individual animal body weight: 29.19
DAY 26, in g (unit assumed)
  Individual animal body weight: 26.81
